Patent US5036098A, “Butynylamine derivatives and their production” (Nippon Shinyaku Co., Ltd., priority 1988, dated 1991)
Where a name gives a salt, the structure may show the parent alone.

How the values were obtained:
[1] = molecular target: detrusor muscles of excised rabbit bladder (Oryctolagus cuniculus, UniProt G1U308)
Description: 1. Action upon detrusor muscles of excised rabbit bladder
(1) Anticholinergic action
The specimens were contracted by carbachol cumulation, and a reaction curve with respect to carbachol concentration was obtained.

Acute toxicity = experiment: Acute toxicity; design: species or system mice; conditions: mouse, in vivo, po; mortality one week later, method of Weil
Method: ddY-Mice (male; 6 to 7 week age) were used as test animals (each group consisting of four mice). Each of the mice was fasted from the previous day (16 to 18 hours before), a drug being tested was orally administered by using a gastric tube, and LD50 value was calculated from the mortality one week later according to the method of Weil.

in vivo = conditions: rat, iv, 3 mg/kg
Method: 4. Concentration of unchanged drug in the serum
A drug being tested was administered to an SD rat (male; 280 to 360 g) in a dose of 3 mg/kg (i.v.), blood samples were taken out at predetermined intervals, and the change in the concentration of said drug left unchanged in the serum was measured.

rat bladder = conditions: for Frequency (cycles of contraction per minute), 0.1 mg/kg (i.v.) / Frequency (cycles of contraction per minute), 0.3 mg/kg (i.v.) / Frequency (cycles of contraction per minute), 1.0 mg/kg (i.v.) / Frequency (cycles of contraction per minute), 3.0 mg/kg (i.v.): 0 to 15 minutes, cumulative administration; for Frequency (cycles of contraction per minute), 1.0 mg/kg (i.v.): *p < 0.05; for Frequency (cycles of contraction per minute), 3.0 mg/kg (i.v.): **p < 0.01; for Frequency (cycles of contraction per minute), before administration: before administration (baseline); for action to suppress the frequency of contraction: i.v., cumulative, result in words
[2] = tested on: detrusor muscles of excised rabbit bladder; experiment: Ca++ antagonism upon detrusor muscles of excised rabbit bladder (calcium chloride contraction); conditions: for pA2 value, Ca++ Antagonism: calcium chloride cumulation, Ca++-free, high KCl-modified Krebs' solution, excised rabbit detrusor
[3] = prior art statement; cited from earlier work

detrusor muscles of excised rabbit bladder (Oryctolagus cuniculus, UniProt G1U308), sequence (G1U308 entry or part of it): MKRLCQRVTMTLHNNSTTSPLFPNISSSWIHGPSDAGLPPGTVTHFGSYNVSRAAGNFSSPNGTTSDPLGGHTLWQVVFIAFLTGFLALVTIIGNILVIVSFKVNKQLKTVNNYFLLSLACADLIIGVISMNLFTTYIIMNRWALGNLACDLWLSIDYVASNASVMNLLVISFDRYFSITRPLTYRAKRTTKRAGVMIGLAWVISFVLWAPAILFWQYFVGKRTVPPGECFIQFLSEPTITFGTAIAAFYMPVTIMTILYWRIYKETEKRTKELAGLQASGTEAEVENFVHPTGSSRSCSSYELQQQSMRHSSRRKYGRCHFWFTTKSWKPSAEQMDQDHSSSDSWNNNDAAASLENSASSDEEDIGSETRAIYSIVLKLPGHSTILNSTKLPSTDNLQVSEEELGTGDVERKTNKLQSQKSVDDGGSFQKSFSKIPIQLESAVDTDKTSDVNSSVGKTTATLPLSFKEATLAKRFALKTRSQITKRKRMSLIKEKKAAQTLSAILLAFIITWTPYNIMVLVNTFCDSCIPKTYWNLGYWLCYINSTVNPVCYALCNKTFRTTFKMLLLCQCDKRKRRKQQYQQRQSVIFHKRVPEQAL

SMILES | Kb [1] [nM] | anticholinergic action compared with oxybutynin ([1]; ratio to oxybutynin) | LD50 at 168 h (Acute toxicity) [mg/kg] | half-life (in vivo) [min] | Frequency (cycles of contraction per minute), 0.1 mg/kg (i.v.) (rat bladder) | Frequency (cycles of contraction per minute), 0.3 mg/kg (i.v.) (rat bladder) | Frequency (cycles of contraction per minute), 1.0 mg/kg (i.v.) (rat bladder) | Frequency (cycles of contraction per minute), 3.0 mg/kg (i.v.) (rat bladder) | minimal effective dose (rat bladder; Rattus norvegicus, iv, read-out: doses showing action to suppress the frequency of contraction) [mg/kg] | Frequency (cycles of contraction per minute), before administration (rat bladder) | action to suppress the frequency of contraction (rat bladder) | pA2 value, Ca++ Antagonism [2] | Ca++ antagonism compared with oxybutynin ([2]; ratio to oxybutynin) [times] | side effects [3]
CCN(CC)CC#CC(C)(C)OC(=O)C(O)(c1ccccc1)C1CCCCC1 (stereo not drawn) [Example 4, 4-diethylamino-1.1-dimethyl-2-butynyl α-cyclohexylα-phenylglycolate hydrochloride] | 46.8 | 1/17 | 841 | 51 | 1.1 ± 0.3 cycles of contraction per minute | 0.8 ± 0.2 cycles of contraction per minute | 0.3 ± 0.1 cycles of contraction per minute | 0.0 ± 0.0 cycles of contraction per minute | ≥ 0.1 | 1.3 ± 0.3 cycles of contraction per minute | dose-dependent action to suppress the frequency of contraction | 6.72 | 8.3 | 
CCN(CC)CC#CCOC(=O)C(O)(c1ccccc1)C1CCCCC1 (centres unmarked) [Oxybutynin, oxybutynin, reference compound] | 2.75 |  |  | 16.8 | 1.1 ± 0.2 cycles of contraction per minute | 1.0 ± 0.2 cycles of contraction per minute | 1.2 ± 0.1 cycles of contraction per minute | 1.2 ± 0.2 cycles of contraction per minute |  | 1.0 ± 0.1 cycles of contraction per minute | no such action was observed | 5.80 |  | exhibits side effects such as thirst
